Assay results: ChEMBL document CHEMBL3758098, “3-(Dipropylamino)-5-hydroxybenzofuro[2,3-f]quinazolin-1(2H)-one (DPA-HBFQ-1) plays an inhibitory role on breast cancer cell growth and progression” (Eur J Med Chem, 2016)
One block for each molecule: values may come before it. Active and inactive are the calls of the source. The calls are words filed in the database; no cut-off is given here.

Assays:
MCF-7 TR1 [1] = experiment: Induction of apoptosis in human MCF-7 TR1 cells assessed as PARP proteolysis at 1 uM after 48 hrs by Western blot analysis; type: functional, cell-based
MCF7 [2] = experiment: Induction of apoptosis in human MCF7 cells assessed as DNA fragmentation at 1 uM after 48 hrs by DNA laddering assay; type: functional, cell-based
MDA-MB-231 [3] = experiment: Induction of p53 consensus sequences deficient […]/WAF1 promoter activity in human MDA-MB-231 cells at 0.1 to 1 uM after 24 hrs by dual luciferase reporter gene assay; type: cell-based
HeLa = experiment: Cytotoxicity against human HeLa cells assessed as growth inhibition by MTT assay; type: functional, cell-based
[4] = molecular target: Cellular tumor antigen p53 (Homo sapiens) (UniProt P04637); experiment: Activation of p53 in human MCF7 cells assessed as upregulation of […]/WAF1 gene expression at 1 uM after 24 hrs by dual luciferase reporter gene assay; type: cell-based
[5] = molecular target: Cellular tumor antigen p53 (Homo sapiens) (UniProt P04637); experiment: Activation of p53 in human MCF-7 TR1 cells assessed as upregulation of […]/WAF1 gene expression at 0.1 uM after 48 hrs by Western blot analysis; type: cell-based
MDA-MB-231 [6] = experiment: Cytotoxicity against human MDA-MB-231 cells assessed as growth inhibition at 1 uM after 5 days by MTT assay relative to vehicle-treated control; type: functional
MCF7 [7] = experiment: Cytotoxicity against human MCF7 cells assessed as growth inhibition at 1 uM after 5 days by MTT assay relative to vehicle-treated control; type: functional; conditions: MCF7, 120 h, read-out: GI
[8] = Induction of apoptosis in human MCF10A cells assessed as PARP proteolysis at 1 uM after 48 hrs by Western blot analysis; type: cell-based; conditions: mcf-10a
[9] = molecular target: Cellular tumor antigen p53 (Homo sapiens) (UniProt P04637); experiment: Activation of p53 in human MCF7 cells assessed as upregulation of […]/WAF1 mRNA expression at 1 uM after 12 hrs by RT-PCR analysis; type: cell-based
MCF7 [10] = experiment: Cytotoxicity against human MCF7 cells assessed as reduction of colony formation at 0.1 uM after 14 days by MTT staining-based anchorage-independant soft agar assay; type: functional, cell-based
[11] = molecular target: Cellular tumor antigen p53 (Homo sapiens) (UniProt P04637); experiment: Activation of p53 in human MCF7 cells assessed as upregulation of […]/WAF1 expression after 48 hrs by Western blot analysis; type: cell-based
[12] = molecular target: Cellular tumor antigen p53 (Homo sapiens) (UniProt P04637); experiment: Activation of p53 in human MCF7 cells assessed as upregulation of […]/WAF1 gene expression at 0.1 uM after 24 hrs by dual luciferase reporter gene assay; type: cell-based
MCF7 [13] = experiment: Upregulation of p53 expression in human MCF7 cells after 48 hrs by Western blot analysis; type: functional, cell-based
[14] = molecular target: Cellular tumor antigen p53 (Homo sapiens) (UniProt P04637); experiment: Activation of p53 in human MCF7 cells assessed as upregulation of […]/WAF1 mRNA expression at 0.1 uM after 12 hrs by RT-PCR analysis; type: cell-based
MDA-MB-231 [15] = experiment: Induction of apoptosis in human MDA-MB-231 cells assessed as DNA fragmentation at 1 uM after 48 hrs by DNA laddering assay; type: functional, cell-based
MCF7 [16] = experiment: Induction of p53 consensus sequences deficient […]/WAF1 promoter activity in human MCF7 cells at 1 uM after 24 hrs by dual luciferase reporter gene assay; type: cell-based
MCF7 [17] = experiment: Cytotoxicity against human MCF7 cells assessed as reduction of colony formation at 1 uM after 14 days by MTT staining-based anchorage-independant soft agar assay; type: functional, cell-based
[18] = molecular target: Cellular tumor antigen p53 (Homo sapiens) (UniProt P04637); experiment: Activation of p53 in human MCF-7 TR1 cells assessed as upregulation of […]/WAF1 gene expression at 1 uM after 48 hrs by Western blot analysis; type: cell-based
[19] = Upregulation of p53 expression in human MCF-7 TR1 cells at 0.1 uM after 48 hrs by Western blot analysis; type: functional, cell-based
MDA-MB-231 [20] = experiment: Cytotoxicity against human MDA-MB-231 cells assessed as reduction of colony formation at 0.1 uM after 14 days by MTT staining-based anchorage-independant soft agar assay; type: functional, cell-based
MCF-7 TR1 [21] = experiment: Induction of apoptosis in human MCF-7 TR1 cells assessed as DNA fragmentation at 1 uM after 48 hrs by DNA laddering analysis; type: functional, cell-based
[22] = molecular target: Cellular tumor antigen p53 (Homo sapiens) (UniProt P04637); experiment: Activation of p53 in human MDA-MB-231 cells assessed as upregulation of […]/WAF1 expression after 48 hrs by Western blot analysis; type: cell-based
MCF-7 TR1 [23] = experiment: Cytotoxicity against human MCF-7 TR1 cells assessed as reduction of colony formation at 1 uM after 14 days by MTT staining-based anchorage-independant soft agar assay; type: functional, cell-based
[24] = molecular target: Cellular tumor antigen p53 (Homo sapiens) (UniProt P04637); experiment: Activation of p53 in human MCF7 cells assessed as upregulation of […]/WAF1 gene expression at 1 uM by dual luciferase reporter gene assay in presence of p53 siRNA; type: cell-based
MCF7 [25] = experiment: Induction of p53 consensus sequences deficient […]/WAF1 promoter activity in human MCF7 cells at 0.1 uM after 24 hrs by dual luciferase reporter gene assay; type: cell-based
[26] = Cytotoxicity against human MCF-7 TR1 cells assessed as cell colony formation after 14 days by crystal violet staining-based assay; type: functional; conditions: MCF-7 TR1, 336 h
MCF7 [27] = experiment: Induction of apoptosis in human MCF7 cells assessed as PARP proteolysis at 1 uM after 48 hrs by Western blot analysis; type: functional, cell-based
MDA-MB-231 [28] = experiment: Cytotoxicity against human MDA-MB-231 cells assessed as reduction of colony formation at 1 uM after 14 days by MTT staining-based anchorage-independant soft agar assay; type: functional, cell-based
[29] = Cytotoxicity against human MCF10A cells assessed as cell viability after 5 days by MTT assay; type: cell-based; conditions: MCF-10A, 120 h
MDA-MB-231 [30] = experiment: Cytotoxicity against human MDA-MB-231 cells assessed as cell viability after 5 days by MTT assay; type: functional, cell-based; conditions: MDA-MB-231, 120 h
MCF7 [31] = experiment: Upregulation of p53 mRNA expression in human MCF7 cells at 0.1 to 1 uM after 12 hrs by RT-PCR analysis; type: functional, cell-based
[32] = molecular target: Cellular tumor antigen p53 (Homo sapiens) (UniProt P04637); experiment: Activation of p53 in human MCF7 cells assessed as upregulation of […]/WAF1 gene expression at 0.1 to 1 uM after 24 hrs by dual luciferase reporter gene assay; type: cell-based
MCF7 [33] = experiment: Cytotoxicity against human MCF7 cells assessed as cell viability after 5 days by MTT assay; type: functional, cell-based; conditions: MCF7, 120 h
[34] = Induction of apoptosis in human MCF10A cells assessed as DNA fragmentation at 1 uM after 48 hrs by DNA laddering assay; type: cell-based; conditions: mcf-10a
[35] = molecular target: Cellular tumor antigen p53 (Homo sapiens) (UniProt P04637); experiment: Activation of p53 in human MDA-MB-231 cells assessed as upregulation of […]/WAF1 mRNA expression at 0.1 uM after 12 hrs by RT-PCR analysis; type: cell-based
MCF-7 TR1 [36] = experiment: Cytotoxicity against human MCF-7 TR1 cells assessed as reduction of cell vitality at 0.1 to 1 uM after 3 to 5 days by MTT assay; type: functional, cell-based
[37] = molecular target: DNA topoisomerase 2-alpha (Homo sapiens) (UniProt P11388); experiment: Inhibition of human topoisomerase 2 assessed as decatenation of kDNA after 30 mins by agarose gel electrophoresis
MDA-MB-231 [38] = experiment: Upregulation of p53 expression in human MDA-MB-231 cells after 48 hrs by Western blot analysis; type: functional, cell-based
[39] = molecular target: Cellular tumor antigen p53 (Homo sapiens) (UniProt P04637); experiment: Activation of p53 in human MDA-MB-231 cells assessed as upregulation of […]/WAF1 mRNA expression at 1 uM after 12 hrs by RT-PCR analysis; type: cell-based
[40] = molecular target: T1, DNA topoisomerase 1 (Homo sapiens) (UniProt P11387); experiment: Inhibition of recombinant human topoisomerase 1 assessed as relaxation of supercoiled pHOT1 at 10 uM after 30 mins by agarose gel electrophoresis
T1 sequence (whole entry): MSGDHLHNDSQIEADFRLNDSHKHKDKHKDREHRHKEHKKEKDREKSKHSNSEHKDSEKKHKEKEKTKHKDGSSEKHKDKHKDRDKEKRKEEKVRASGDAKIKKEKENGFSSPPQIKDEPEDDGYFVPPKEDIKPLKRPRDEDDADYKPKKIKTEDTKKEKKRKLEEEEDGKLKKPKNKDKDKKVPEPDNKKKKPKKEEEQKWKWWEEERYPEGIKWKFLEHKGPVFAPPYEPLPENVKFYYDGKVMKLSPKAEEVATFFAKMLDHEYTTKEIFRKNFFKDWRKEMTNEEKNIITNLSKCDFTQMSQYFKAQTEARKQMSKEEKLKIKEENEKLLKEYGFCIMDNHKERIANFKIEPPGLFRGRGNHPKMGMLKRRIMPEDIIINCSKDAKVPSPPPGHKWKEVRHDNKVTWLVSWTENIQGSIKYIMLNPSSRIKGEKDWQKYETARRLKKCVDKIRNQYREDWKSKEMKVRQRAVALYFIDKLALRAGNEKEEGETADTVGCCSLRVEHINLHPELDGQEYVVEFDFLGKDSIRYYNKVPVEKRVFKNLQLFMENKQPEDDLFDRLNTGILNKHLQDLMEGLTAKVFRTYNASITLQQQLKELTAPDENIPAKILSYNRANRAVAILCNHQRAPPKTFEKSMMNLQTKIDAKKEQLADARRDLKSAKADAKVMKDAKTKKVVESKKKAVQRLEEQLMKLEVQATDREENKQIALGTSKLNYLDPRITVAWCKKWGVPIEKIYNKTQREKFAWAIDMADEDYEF

[41] = molecular target: T1, DNA topoisomerase 1 (Homo sapiens); experiment: Inhibition of recombinant human topoisomerase 1 assessed as relaxation of supercoiled pHOT1 at 50 uM after 30 mins by agarose gel electrophoresis
[42] = Upregulation of p53 expression in human MCF-7 TR1 cells at 1 uM after 48 hrs by Western blot analysis; type: functional, cell-based
MDA-MB-231 [43] = experiment: Upregulation of p53 mRNA expression in human MDA-MB-231 cells at 0.1 to 1 uM after 12 hrs by RT-PCR analysis; type: functional, cell-based
HepG2 = experiment: Cytotoxicity against human HepG2 cells assessed as growth inhibition by MTT assay; type: functional, cell-based
[44] = Cytotoxicity against rat R2C cells assessed as growth inhibition by MTT assay; type: functional, cell-based
[45] = Upregulation of p53 expression in human MCF10A cells at 1 uM after 48 hrs by Western blot analysis; type: ADME, cell-based; conditions: mcf-10a
[46] = Cytotoxicity against human MCF10A cells assessed as growth inhibition at 1 uM after 5 days by MTT assay relative to vehicle-treated control; type: cell-based; conditions: mcf-10a, 120 h
Ishikawa = experiment: Cytotoxicity against human Ishikawa cells assessed as growth inhibition by MTT assay; type: functional, cell-based
[47] = Upregulation of p53 expression in human MCF10A cells at 0.1 uM after 48 hrs by Western blot analysis; type: ADME, cell-based; conditions: mcf-10a

Chain of Cellular tumor antigen p53 (Homo sapiens) (P04637 whole entry, looked up, the tested form may be a part): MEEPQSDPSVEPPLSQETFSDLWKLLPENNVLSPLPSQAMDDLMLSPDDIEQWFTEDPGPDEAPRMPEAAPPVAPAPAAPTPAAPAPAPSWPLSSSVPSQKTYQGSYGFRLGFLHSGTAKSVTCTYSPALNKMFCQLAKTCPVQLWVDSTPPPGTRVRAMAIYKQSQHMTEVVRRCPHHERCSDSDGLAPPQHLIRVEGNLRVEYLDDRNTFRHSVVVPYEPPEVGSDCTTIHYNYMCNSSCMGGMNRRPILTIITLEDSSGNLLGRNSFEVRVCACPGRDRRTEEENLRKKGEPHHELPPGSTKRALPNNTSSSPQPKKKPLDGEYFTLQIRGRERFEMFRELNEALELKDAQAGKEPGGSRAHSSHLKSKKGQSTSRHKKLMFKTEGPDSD
Chain of DNA topoisomerase 2-alpha (Homo sapiens) (P11388 whole entry): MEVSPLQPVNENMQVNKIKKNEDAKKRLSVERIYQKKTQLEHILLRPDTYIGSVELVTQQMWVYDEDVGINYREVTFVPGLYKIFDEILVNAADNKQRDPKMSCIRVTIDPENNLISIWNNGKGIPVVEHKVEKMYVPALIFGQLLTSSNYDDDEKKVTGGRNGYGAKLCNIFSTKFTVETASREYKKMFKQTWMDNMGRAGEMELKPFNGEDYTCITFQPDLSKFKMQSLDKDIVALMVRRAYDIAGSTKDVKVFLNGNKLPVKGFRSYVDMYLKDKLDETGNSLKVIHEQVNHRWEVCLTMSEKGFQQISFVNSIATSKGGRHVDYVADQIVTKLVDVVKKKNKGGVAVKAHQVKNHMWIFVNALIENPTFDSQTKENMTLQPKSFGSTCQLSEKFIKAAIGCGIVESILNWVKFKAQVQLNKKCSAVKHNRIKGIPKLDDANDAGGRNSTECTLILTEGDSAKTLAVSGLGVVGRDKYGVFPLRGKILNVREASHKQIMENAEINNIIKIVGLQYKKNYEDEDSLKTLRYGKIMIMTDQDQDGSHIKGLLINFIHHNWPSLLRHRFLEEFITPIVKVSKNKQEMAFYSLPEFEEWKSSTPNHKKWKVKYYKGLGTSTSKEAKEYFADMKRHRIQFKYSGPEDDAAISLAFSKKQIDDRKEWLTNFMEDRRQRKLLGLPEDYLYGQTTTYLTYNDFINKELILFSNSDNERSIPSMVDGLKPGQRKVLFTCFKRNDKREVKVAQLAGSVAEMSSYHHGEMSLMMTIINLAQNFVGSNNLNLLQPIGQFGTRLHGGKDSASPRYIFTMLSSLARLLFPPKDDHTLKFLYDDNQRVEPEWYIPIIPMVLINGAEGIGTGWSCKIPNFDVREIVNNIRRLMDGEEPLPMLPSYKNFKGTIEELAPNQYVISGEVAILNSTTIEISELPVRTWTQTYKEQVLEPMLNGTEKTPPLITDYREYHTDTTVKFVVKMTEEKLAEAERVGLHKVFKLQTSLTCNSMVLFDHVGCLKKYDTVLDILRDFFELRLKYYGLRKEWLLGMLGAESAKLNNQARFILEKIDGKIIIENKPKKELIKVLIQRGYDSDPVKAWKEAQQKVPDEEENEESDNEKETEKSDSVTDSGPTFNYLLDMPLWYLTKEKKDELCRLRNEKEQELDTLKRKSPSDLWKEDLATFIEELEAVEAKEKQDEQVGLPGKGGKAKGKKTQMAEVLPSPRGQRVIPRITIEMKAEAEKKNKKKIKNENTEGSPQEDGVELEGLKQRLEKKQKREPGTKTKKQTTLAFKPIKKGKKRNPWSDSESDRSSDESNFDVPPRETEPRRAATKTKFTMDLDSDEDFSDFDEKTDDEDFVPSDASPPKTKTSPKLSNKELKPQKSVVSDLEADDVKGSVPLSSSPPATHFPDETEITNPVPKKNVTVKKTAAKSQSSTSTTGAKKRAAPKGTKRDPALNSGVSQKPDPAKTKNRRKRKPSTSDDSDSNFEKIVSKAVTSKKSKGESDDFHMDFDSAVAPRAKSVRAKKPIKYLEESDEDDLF

Activity [4]: Active
Activity [5]: Active
Activity [9]: Active
Activity [11]: Dose-dependent effect
Activity [12]: Active
Activity [14]: Active
Activity [18]: Active
Activity [22]: Dose-dependent effect
Activity [24]: inactive
Activity [32]: inactive
Activity [35]: Active
inhibition [37]: Dose-dependent effect
Activity [39]: Active
inhibition [40]: inactive
inhibition [41]: inactive
SMILES: CCCN(CCC)c1nc2c(O)cc3c4ccccc4oc3c2c(=O)[nH]1
Activity (MCF-7 TR1 [1]): Active
Activity (MCF7 [2]): Active
Activity (MDA-MB-231 [3]): Active
IC50 (HeLa): 700 nM
inhibition of growth at 1 µM (MDA-MB-231 [6]; MDA-MB-231, 120 h, read-out: GI): 60%
inhibition of growth at 1 µM (MCF7 [7]): 58%
Activity [8]: Non-toxic
Activity (MCF7 [10]): Active
Activity (MCF7 [13]): Dose-dependent effect
Activity (MDA-MB-231 [15]): Active
Activity (MCF7 [16]): inactive
Activity (MCF7 [17]): Active
Activity [19]: Active
Activity (MDA-MB-231 [20]): Active
Activity (MCF-7 TR1 [21]): Active
Activity (MCF-7 TR1 [23]): Active
Activity (MCF7 [25]): inactive
IC50 [26]: 1000 nM
Activity (MCF7 [27]): inactive
Activity (MDA-MB-231 [28]): Active
IC50 [29]: 33000 nM
IC50 (MDA-MB-231 [30]): 650 nM
Activity (MCF7 [31]): inactive
IC50 (MCF7 [33]): 660 nM
Activity [34]: Non-toxic
Activity (MCF-7 TR1 [36]): Active
Activity (MDA-MB-231 [38]): Dose-dependent effect
Activity [42]: Active
Activity (MDA-MB-231 [43]): inactive
IC50 (HepG2): 890 nM
IC50 [44]: 1200 nM
Activity [45]: Non-toxic
Activity [46]: Non-toxic
IC50 (Ishikawa): 980 nM
Activity [47]: Non-toxic

SMILES: CCN(CC)c1nc2c(OC)cc3c4ccccc4oc3c2c(=O)[nH]1
growth inhibition (GI) (MDA-MB-231 [6]): Active
inhibition of growth at 1 µM (MCF7 [7]): 15%
Activity [46]: Non-toxic

SMILES: CCCCN(CCCC)c1nc2ccc3c4ccccc4oc3c2c(=O)[nH]1
growth inhibition (GI) (MDA-MB-231 [6]): Active
inhibition of growth at 1 µM (MCF7 [7]): 15%
Activity [46]: Non-toxic

SMILES: CCCN(CCC)c1nc2ccc3c4ccccc4oc3c2c(=O)[nH]1
growth inhibition (GI) (MDA-MB-231 [6]): Active
inhibition of growth at 1 µM (MCF7 [7]): 25%
Activity [46]: Non-toxic
